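Growth conditions: 96-well plates. Treatment: test compound, 48 hours, 5 concentrations. Analysis: linear interpolation between bracketing concentrations; unreached endpoints set to highest concentration. GI50 is the concentration that inhibits growth by half.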 Activity calls are given as the source filed them. Cut-off read from the data, not from the text of the source: active = GI50 up to about 1.1 µM and inactive = higher.
Tests used:
Assay in all cases: growth of human tumour cells (NCI), 48 h
786-0 = test system: 786-0
A498 = test system: A498
A549 = test system: A549
ACHN = test system: ACHN
CAKI-1 = test system: CAKI-1
CCRF-CEM = test system: CCRF-CEM
COLO 205 = test system: COLO 205
DLD-1 = test system: DLD-1
DMS-114 = test system: DMS-114
DMS-273 = test system: DMS-273
HCC 2998 = test system: HCC 2998
HCT-116 = test system: HCT-116
HCT-15 = test system: HCT-15
HL-60 = test system: HL-60
HOP-18 = test system: HOP-18
HOP-62 = test system: HOP-62
HOP-92 = test system: HOP-92
HT-29 = test system: HT-29
IGROV-1 = test system: IGROV-1
K562 = test system: K562
KM-20L2 = test system: KM-20L2
KM12 = test system: KM12
LOX IMVI = test system: LOX IMVI
LXFL 529 = test system: LXFL 529
M14 = test system: M14
M19-MEL = test system: M19-MEL
MOLT-4 = test system: MOLT-4
Malme-3M = test system: Malme-3M
NCI-H226 = test system: NCI-H226
NCI-H23 = test system: NCI-H23
NCI-H460 = test system: NCI-H460
NCI-H522 = test system: NCI-H522
OVCAR-3 = test system: OVCAR-3
OVCAR-4 = test system: OVCAR-4
OVCAR-5 = test system: OVCAR-5
OVCAR-8 = test system: OVCAR-8
RPMI-8226 = test system: RPMI-8226
RXF 631 = test system: RXF 631
SF-268 = test system: SF-268
SF-295 = test system: SF-295
SF-539 = test system: SF-539
SK-MEL-28 = test system: SK-MEL-28
SK-MEL-2 = test system: SK-MEL-2
SK-OV-3 = test system: SK-OV-3
SN12C = test system: SN12C
SNB-19 = test system: SNB-19
SNB-75 = test system: SNB-75
SR = test system: SR
SW-620 = test system: SW-620
TK-10 = test system: TK-10
U-251 = test system: U-251
UACC-257 = test system: UACC-257
UACC-62 = test system: UACC-62
UO-31 = test system: UO-31
XF498 = test system: XF498
RXF 393 = test system: RXF 393
SNB-78 = test system: SNB-78

C[C@]12CCCC(=O)C1C[C@H](C(=O)O)CC2 (stereo partly drawn)
GI50 (786-0): > 100 µM (inactive)
GI50 (A498): > 100 µM (inactive)
GI50 (A549): > 100 µM (inactive)
GI50 (ACHN): > 100 µM (inactive)
GI50 (CAKI-1): > 100 µM (inactive)
GI50 (CCRF-CEM): > 100 µM (inactive)
GI50 (COLO 205): > 100 µM (inactive)
GI50 (DLD-1): > 100 µM (inactive)
GI50 (DMS-114): > 100 µM (inactive)
GI50 (DMS-273): > 100 µM (inactive)
GI50 (HCC 2998): > 100 µM (inactive)
GI50 (HCT-116): > 100 µM (inactive)
GI50 (HCT-15): > 100 µM
GI50 (HL-60): > 100 µM (inactive)
GI50 (HOP-18): > 100 µM (inactive)
GI50 (HOP-62): > 100 µM (inactive)
GI50 (HOP-92): > 100 µM (inactive)
GI50 (HT-29): > 100 µM (inactive)
GI50 (IGROV-1): > 100 µM (inactive)
GI50 (K562): > 100 µM (inactive)
GI50 (KM-20L2): > 100 µM (inactive)
GI50 (KM12): > 100 µM (inactive)
GI50 (LOX IMVI): > 100 µM (inactive)
GI50 (LXFL 529): > 100 µM (inactive)
GI50 (M14): > 100 µM (inactive)
GI50 (M19-MEL): > 100 µM (inactive)
GI50 (MOLT-4): > 100 µM (inactive)
GI50 (Malme-3M): > 100 µM (inactive)
GI50 (NCI-H226): > 100 µM (inactive)
GI50 (NCI-H23): > 100 µM (inactive)
GI50 (NCI-H460): > 100 µM (inactive)
GI50 (NCI-H522): > 100 µM (inactive)
GI50 (OVCAR-3): > 100 µM (inactive)
GI50 (OVCAR-4): > 100 µM (inactive)
GI50 (OVCAR-5): > 100 µM (inactive)
GI50 (OVCAR-8): > 100 µM (inactive)
GI50 (RPMI-8226): > 100 µM (inactive)
GI50 (RXF 631): > 100 µM (inactive)
GI50 (SF-268): > 100 µM (inactive)
GI50 (SF-295): > 100 µM (inactive)
GI50 (SF-539): > 100 µM (inactive)
GI50 (SK-MEL-28): > 100 µM (inactive)
GI50 (SK-MEL-2): > 100 µM (inactive)
GI50 (SK-OV-3): > 100 µM (inactive)
GI50 (SN12C): > 100 µM (inactive)
GI50 (SNB-19): > 100 µM (inactive)
GI50 (SNB-75): > 100 µM (inactive)
GI50 (SR): > 100 µM (inactive)
GI50 (SW-620): > 100 µM (inactive)
GI50 (TK-10): > 100 µM (inactive)
GI50 (U-251): > 100 µM (inactive)
GI50 (UACC-257): > 100 µM (inactive)
GI50 (UACC-62): > 100 µM (inactive)
GI50 (UO-31): > 100 µM (inactive)
GI50 (XF498): > 100 µM (inactive)

O=C(O)CCC1CCc2cccc(O)c2C1=O (stereo not drawn)
GI50 (A498): > 100 µM (inactive)
GI50 (ACHN): > 100 µM (inactive)
GI50 (CCRF-CEM): > 100 µM (inactive)
GI50 (COLO 205): > 100 µM (inactive)
GI50 (DMS-114): > 100 µM (inactive)
GI50 (DMS-273): > 100 µM (inactive)
GI50 (HCT-15): > 100 µM
GI50 (HL-60): > 100 µM (inactive)
GI50 (HOP-18): > 100 µM (inactive)
GI50 (HOP-92): > 100 µM (inactive)
GI50 (IGROV-1): > 100 µM (inactive)
GI50 (K562): > 100 µM (inactive)
GI50 (KM-20L2): > 100 µM (inactive)
GI50 (LOX IMVI): > 100 µM (inactive)
GI50 (LXFL 529): > 100 µM (inactive)
GI50 (M14): > 100 µM (inactive)
GI50 (M19-MEL): > 100 µM (inactive)
GI50 (MOLT-4): > 100 µM (inactive)
GI50 (NCI-H23): > 100 µM (inactive)
GI50 (NCI-H460): > 100 µM (inactive)
GI50 (OVCAR-4): > 100 µM (inactive)
GI50 (RPMI-8226): > 100 µM (inactive)
GI50 (RXF 393): > 100 µM (inactive)
GI50 (RXF 631): > 100 µM (inactive)
GI50 (SF-539): > 100 µM (inactive)
GI50 (SK-MEL-28): > 100 µM (inactive)
GI50 (SK-OV-3): > 100 µM (inactive)
GI50 (SN12C): > 100 µM (inactive)
GI50 (SNB-19): > 100 µM (inactive)
GI50 (SNB-78): > 100 µM (inactive)
GI50 (U-251): > 100 µM (inactive)
GI50 (UACC-62): > 100 µM (inactive)
GI50 (XF498): > 100 µM (inactive)

From ChEMBL document CHEMBL1201862, “PubChem BioAssay data set” (2004)
